Reference: publication PMC10531082, “Antiproliferative and Antimetastatic Properties of 16-Azidomethyl Substituted 3-O-Benzyl Estrone Analogs” (International Journal of Molecular Sciences, 2023)
Where two headings read alike, the source gives them in different places.

Columns and labels:
NIH/3T3 = assay: cells; design: MTT assay, growth inhibition of cells relative to untreated control; conditions: Mus musculus, NIH3T3; read-out: Growth inhibition (%) at 30 uM
Method: (§1) Cancer cells were seeded onto a 96-well microplate for the proliferation assay at a density of 5000 cells/well. After 24 h of incubation, 200 μL of new medium containing the test compounds at 10 or 30 µM concentrations was added. Absorbance of the reduced MTT solution was measured at 545 nm using a microplate reader, with untreated cells serving as the negative control. In the case of active compounds (i.e., >50% cell growth inhibition at 10 μM), the assay was repeated with a series of dilutions, and sigmoidal dose–response curves were fitted to the obtained data. The IC50 values, representing the concentration at which cell proliferation was reduced by 50% compared with the untreated control, were calculated using GraphPad Prism 5 (GraphPad Software, San Diego, CA, USA). Each in vitro experiment was conducted on two microplates with a minimum of five parallel wells. […] Cisplatin was used as a reference agent. The antiproliferative capacities of the prepared compounds were determined by employing the MTT assay against a panel of human adherent cancer cell lines isolated from breast (MCF-7 and MDA-MB-231) or cervical (HeLa and SiHa) tumors. All compounds were tested at two concentrations (10 and 30 μM). When >50% of antiproliferative capacity was obtained at 10 μM, the assays were repeated with a broader concentration range (0.1–30 μM), and IC50 values were calculated (Figure 2, Supplementary Table S1, Supplementary Figure S1). […] MTT assays were performed against the non-cancerous fibroblast cell line NIH/3T3 to obtain preliminary data on cancer selectivity of 16AABE and 16BABE. […] The ratios of IC50 values obtained against cancer cells and fibroblasts were in the range of 0.2 and 0.5, indicating substantial cancer selectivity of these two compounds (Table 1).

MDA-MB-231 [1] = assay: cells; design: MTT assay, growth inhibition of cells relative to untreated control; conditions: Homo sapiens, MDA-MB-231; for inhibition at 10 µM: read-out: Growth inhibition (%) at 10 uM; for inhibition at 30 µM: read-out: Growth inhibition (%) at 30 uM
Method: as §1

SiHa [2] = assay: cells; design: MTT assay, growth inhibition of cells relative to untreated control; conditions: Homo sapiens, SiHa; for inhibition at 10 µM: read-out: Growth inhibition (%) at 10 uM; for inhibition at 30 µM: read-out: Growth inhibition (%) at 30 uM
Method: as §1

MCF-7 [3] = assay: cells; design: MTT assay, growth inhibition of cells relative to untreated control; conditions: Homo sapiens, MCF7; for inhibition at 10 µM: read-out: Growth inhibition (%) at 10 uM; for inhibition at 30 µM: read-out: Growth inhibition (%) at 30 uM
Method: as §1

HeLa [4] = assay: cells; design: MTT assay, growth inhibition of cells relative to untreated control; conditions: Homo sapiens, HeLa; for inhibition at 10 µM: read-out: Growth inhibition (%) at 10 uM; for inhibition at 30 µM: read-out: Growth inhibition (%) at 30 uM
Method: as §1

MDA-MB-231 [5] = assay: cells; design: MTT antiproliferative assay, absorbance at 545 nm, inhibition versus untreated control; conditions: Homo sapiens; for inhibition at 10 µM / inhibition at 30 µM: read-out: Growth inhibition (%) MDA-MB-231
Method: (§2) The antiproliferative capacities of the prepared compounds were determined by employing the MTT assay against a panel of human adherent cancer cell lines isolated from breast (MCF-7 and MDA-MB-231) or cervical (HeLa and SiHa) tumors. All compounds were tested at two concentrations (10 and 30 μM). When >50% of antiproliferative capacity was obtained at 10 μM, the assays were repeated with a broader concentration range (0.1–30 μM), and IC50 values were calculated (Figure 2, Supplementary Table S1, Supplementary Figure S1). […] MTT assays were performed against the non-cancerous fibroblast cell line NIH/3T3 to obtain preliminary data on cancer selectivity of 16AABE and 16BABE. […] The ratios of IC50 values obtained against cancer cells and fibroblasts were in the range of 0.2 and 0.5, indicating substantial cancer selectivity of these two compounds (Table 1). Cancer cells were seeded onto a 96-well microplate for the proliferation assay at a density of 5000 cells/well. After 24 h of incubation, 200 μL of new medium containing the test compounds at 10 or 30 µM concentrations was added. Absorbance of the reduced MTT solution was measured at 545 nm using a microplate reader, with untreated cells serving as the negative control. In the case of active compounds (i.e., >50% cell growth inhibition at 10 μM), the assay was repeated with a series of dilutions, and sigmoidal dose–response curves were fitted to the obtained data. The IC50 values, representing the concentration at which cell proliferation was reduced by 50% compared with the untreated control, were calculated using GraphPad Prism 5 (GraphPad Software, San Diego, CA, USA). Each in vitro experiment was conducted on two microplates with a minimum of five parallel wells. […] Cisplatin was used as a reference agent.

SiHa [6] = assay: cells; design: MTT antiproliferative assay, absorbance at 545 nm, inhibition versus untreated control; conditions: Homo sapiens; for inhibition at 10 µM / inhibition at 30 µM: read-out: Growth inhibition (%) SiHa
Method: as §2

MCF-7 [7] = assay: cells; design: MTT antiproliferative assay, absorbance at 545 nm, inhibition versus untreated control; conditions: Homo sapiens, MCF7; for inhibition at 10 µM / inhibition at 30 µM: read-out: Growth inhibition (%) MCF-7
Method: as §2

HeLa [8] = assay: cells; design: MTT antiproliferative assay, absorbance at 545 nm, inhibition versus untreated control; conditions: Homo sapiens; for inhibition at 10 µM / inhibition at 30 µM: read-out: Growth inhibition (%) HeLa
Method: as §2

estrogen receptor (ERα) = biological target: T1, estrogen receptor (ERα) (Homo sapiens, UniProt P03372); assay: estrogen-responsive luciferase reporter assay in T47D-KBluc cells (agonism); type: cell-based
T1 construct: gene ESR1

in vitro = assay: in vitro; design: MTT assay on non-cancerous NIH/3T3 fibroblasts, absorbance at 545 nm, selectivity counter-screen; conditions: mouse, nih/3t3 cells; read-out: IC50 NIH/3T3
Method: The antiproliferative capacities of the prepared compounds were determined by employing the MTT assay against a panel of human adherent cancer cell lines isolated from breast (MCF-7 and MDA-MB-231) or cervical (HeLa and SiHa) tumors. All compounds were tested at two concentrations (10 and 30 μM). When >50% of antiproliferative capacity was obtained at 10 μM, the assays were repeated with a broader concentration range (0.1–30 μM), and IC50 values were calculated (Figure 2, Supplementary Table S1, Supplementary Figure S1). […] MTT assays were performed against the non-cancerous fibroblast cell line NIH/3T3 to obtain preliminary data on cancer selectivity of 16AABE and 16BABE. […] The ratios of IC50 values obtained against cancer cells and fibroblasts were in the range of 0.2 and 0.5, indicating substantial cancer selectivity of these two compounds (Table 1). The antiproliferative activity of the presented compounds were evaluated against a panel of human gynecological cancer cell lines. MCF-7 and MDA-MB-231 cell lines were derived from breast cancers, while HeLa and SiHa cell lines originated from cervical cancers of different pathological backgrounds. […] Absorbance of the reduced MTT solution was measured at 545 nm using a microplate reader, with untreated cells serving as the negative control. […]

T1 sequence (P03372 whole entry): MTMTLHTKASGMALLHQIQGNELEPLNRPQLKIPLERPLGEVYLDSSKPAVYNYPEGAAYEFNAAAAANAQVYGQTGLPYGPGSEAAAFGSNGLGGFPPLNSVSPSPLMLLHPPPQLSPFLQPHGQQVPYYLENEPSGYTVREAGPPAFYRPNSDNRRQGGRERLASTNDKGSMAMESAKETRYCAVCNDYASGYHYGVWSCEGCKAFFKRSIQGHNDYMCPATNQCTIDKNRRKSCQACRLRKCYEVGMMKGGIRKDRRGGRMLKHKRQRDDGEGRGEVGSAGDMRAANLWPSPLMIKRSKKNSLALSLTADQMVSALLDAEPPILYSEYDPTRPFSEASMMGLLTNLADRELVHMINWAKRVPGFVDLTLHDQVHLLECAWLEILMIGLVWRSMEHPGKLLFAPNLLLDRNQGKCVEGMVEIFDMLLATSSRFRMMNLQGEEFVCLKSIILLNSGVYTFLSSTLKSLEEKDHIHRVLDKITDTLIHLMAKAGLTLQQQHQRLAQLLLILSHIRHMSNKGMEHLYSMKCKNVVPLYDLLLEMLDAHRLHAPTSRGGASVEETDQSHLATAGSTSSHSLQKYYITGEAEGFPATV

## C[C@]12CC[C@@H]3c4ccc(OCc5ccccc5)cc4CC[C@H]3[C@@H]1C[C@H](CN=[N+]=[N-])C2=O [16BABE, 16β-azidomethyl-3-benzyloxyestra-1,3,5(10)-trien-17-on]
NIH/3T3
  inhibition at 30 µM: 94.8 ± 1.63%
MDA-MB-231 [1]
  inhibition at 10 µM: 93.65 ± 0.24%
  inhibition at 30 µM: 95.03 ± 0.23%
SiHa [2]
  inhibition at 10 µM: 90.73 ± 0.53%
  inhibition at 30 µM: 91.08 ± 0.55%
MCF-7 [3]
  inhibition at 10 µM: 92.94 ± 0.37%
  inhibition at 30 µM: 93.79 ± 0.4%
HeLa [4]
  inhibition at 10 µM: 93.4 ± 0.13%
  inhibition at 30 µM: 94.33 ± 0.32%
MDA-MB-231 [5]
  IC50: 8.13 µM
SiHa [6]
  IC50: 3.85 µM
MCF-7 [7]
  IC50: 3.15 µM
HeLa [8]
  IC50: 4.6 µM
Estrogen receptor (ERα)
  EC50: ~0.178 µM
In vitro
  CC50: 18.9 µM

## C[C@]12CC[C@@H]3c4ccc(OCc5ccccc5)cc4CC[C@H]3[C@@H]1C[C@@H](CN=[N+]=[N-])C2=O [16AABE, 16α-azidomethyl-3-benzyloxyestra-1,3,5(10)-trien-17-on]
NIH/3T3
  inhibition at 30 µM: 98.29 ± 0.41%
MDA-MB-231 [1]
  inhibition at 10 µM: 93.53 ± 0.17%
  inhibition at 30 µM: 95.11 ± 0.31%
SiHa [2]
  inhibition at 10 µM: 90.1 ± 0.66%
  inhibition at 30 µM: 91.48 ± 0.55%
MCF-7 [3]
  inhibition at 10 µM: 91.73 ± 0.71%
  inhibition at 30 µM: 93.85 ± 0.22%
HeLa [4]
  inhibition at 10 µM: 93.22 ± 0.92%
  inhibition at 30 µM: 93.96 ± 0.23%
MDA-MB-231 [5]
  IC50: 4.72 µM
SiHa [6]
  IC50: 4.1 µM
MCF-7 [7]
  IC50: 3.13 µM
HeLa [8]
  IC50: 5.01 µM
In vitro
  CC50: 13.6 µM

## C[C@]12CC[C@@H]3c4ccc(OCc5ccccc5)cc4CC[C@H]3[C@@H]1C[C@@H](CN=[N+]=[N-])[C@H]2O [compound 4, 4]
MDA-MB-231 [5]
  inhibition at 10 µM: 25.1 ± 2.83%
  inhibition at 30 µM: 57.3 ± 0.98%
SiHa [6]
  inhibition at 10 µM: < 20%
  inhibition at 30 µM: 31.9 ± 0.69%
MCF-7 [7]
  inhibition at 10 µM: < 20%
  inhibition at 30 µM: 52.4 ± 2.5%
HeLa [8]
  inhibition at 10 µM: 26.6 ± 1.78%
  inhibition at 30 µM: 52.89 ± 0.49%

## C[C@]12CC[C@@H]3c4ccc(OCc5ccccc5)cc4CC[C@H]3[C@@H]1C[C@@H](CN=[N+]=[N-])[C@@H]2O [compound 3, 3]
MDA-MB-231 [5]
  inhibition at 10 µM: 33.5 ± 2.92%
  inhibition at 30 µM: 89 ± 0.9%
SiHa [6]
  inhibition at 10 µM: < 20%
  inhibition at 30 µM: 86.46 ± 0.36%
MCF-7 [7]
  inhibition at 10 µM: 27.3 ± 1.28%
  inhibition at 30 µM: 92.55 ± 0.18%
HeLa [8]
  inhibition at 10 µM: 25 ± 2.26%
  inhibition at 30 µM: 93.35 ± 0.32%

## C[C@]12CC[C@@H]3c4ccc(OCc5ccccc5)cc4CC[C@H]3[C@@H]1C[C@H](CN=[N+]=[N-])[C@@H]2O [compound 1, 1]
MDA-MB-231 [5]
  inhibition at 10 µM: 34.07 ± 0.27%
  inhibition at 30 µM: 92.92 ± 0.09%
SiHa [6]
  inhibition at 10 µM: < 20%
  inhibition at 30 µM: 89.93 ± 0.2%
MCF-7 [7]
  inhibition at 10 µM: 38.8 ± 0.81%
  inhibition at 30 µM: 92.64 ± 0.22%
HeLa [8]
  inhibition at 10 µM: 33.97 ± 0.33%
  inhibition at 30 µM: 93.1 ± 0.21%

## C[C@]12CC[C@@H]3c4ccc(OCc5ccccc5)cc4CC[C@H]3[C@@H]1C[C@H](CN=[N+]=[N-])[C@H]2O [compound 2, 2]
MDA-MB-231 [5]
  inhibition at 10 µM: 45.1 ± 1.69%
  inhibition at 30 µM: 64.2 ± 1.39%
SiHa [6]
  inhibition at 30 µM: 43.2 ± 2.58%
MCF-7 [7]
  inhibition at 10 µM: 20.2 ± 2.19%
  inhibition at 30 µM: 51.9 ± 1.85%
HeLa [8]
  inhibition at 10 µM: 29.1 ± 1.06%
  inhibition at 30 µM: 55.5 ± 2.06%
